Some test systems named below: 786-0 renal; HCT-15 colon; BT-549 breast; UO-31 renal; HT29 colon; SF-539 CNS; COLO 205 colon; HOP-62 NSCLC; MCF7 breast.
Assay in all cases: inhibition of tumour cell growth, NCI panel, 48 h

Structures are written as SMILES.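 Each compound was tested at five concentrations against cells in 96-well plates for 48 hours. TGI marks complete inhibition of growth.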 Where a SMILES comes first, the peptide text is derived from it. Bridges are numbered along the chain shown (N, C = ends). [ ]: non-standard residue; d: D form. The star is where a group is joined. ξ: configuration not given here. X26 = O=C(/C=C/C=C/C=C/C=C/C=C/C(=O)*)NC1=C(O)CCC1=O; NMeA = CN[C@@H](C)C(=O)O; ξF = NC(Cc1ccccc1)C(=O)O; ξA = CC(N)C(=O)O

On to `CC(C)(C)OC(=O)NCCC(N)=S`, for which the TGI in the test with 786-0 renal, with HCT-15 colon, with BT-549 breast, in the test with UO-31 renal, in the test on HT29 colon and in the test with SF-539 CNS was over 100 µM each time. For the same compound, the TGI in the test on COLO 205 colon, in the test on HOP-62 NSCLC and in the test on MCF7 breast was over 100 µM throughout.

For `N/C(=N\S(=O)(=O)c1c(C(F)(F)F)cccc1C(F)(F)F)Nc1ccc(Cl)cc1`, the TGI in the test with 786-0 renal is 74.7 µM; in the test with HCT-15 colon it was over 100 µM; in the test on BT-549 breast it was 96 µM; in the test with UO-31 renal it was 6.35 µM; in the test on HT29 colon it was over 100 µM; with SF-539 CNS, over 100 µM. In addition, the TGI in the test on COLO 205 colon is 33.1 µM; with HOP-62 NSCLC it was over 100 µM; in the test with MCF7 breast, over 100 µM.

Consider `CCOC(=O)C(Cl)(Cl)/S(=N\S(=O)(=O)c1ccccc1)NC(=O)c1ccccc1` (stereo not given), for which the TGI with 786-0 renal, with HCT-15 colon, in the test on BT-549 breast, in the test with UO-31 renal, in the test with HT29 colon and with SF-539 CNS was over 100 µM in each case. The TGI in the test on COLO 205 colon, in the test with HOP-62 NSCLC and in the test on MCF7 breast was over 100 µM in each case.

On to `O=C(CNc1c(Cl)cccc1Cl)NC1C=Cc2ccc(S(=O)(=O)Nc3c(Cl)cccc3Cl)cc2C1=O` (stereo not given), for which the TGI in the test on 786-0 renal, in the test on HCT-15 colon, in the test on BT-549 breast, with UO-31 renal, in the test on HT29 colon and in the test on SF-539 CNS was over 100 µM throughout. Also, the TGI in the test on COLO 205 colon, in the test on HOP-62 NSCLC and in the test on MCF7 breast was over 100 µM each time.

With `O=C(Nc1ccccc1F)c1cc2ccc(O)cc2oc1=Nc1ccccc1F`, the TGI worked out at 3.34 µM in the test on 786-0 renal; 6.28 µM in the test on HCT-15 colon; 6.95 µM in the test on BT-549 breast; 3.56 µM with UO-31 renal; 32.9 µM in the test with HT29 colon; 16.5 µM in the test with SF-539 CNS. The TGI in the test on COLO 205 colon was determined as 61.7 µM; with HOP-62 NSCLC, 4.31 µM; with MCF7 breast, 11.3 µM.

On to `COC(=O)CCc1cc(OC)c2c(c1)[C@H](C(=O)OC)[C@@H](c1ccc(O)c(OC)c1)O2`, for which the TGI in the test with 786-0 renal, in the test on HCT-15 colon, with BT-549 breast, with UO-31 renal, in the test with HT29 colon and with SF-539 CNS was over 100 µM each time. Further, the TGI with COLO 205 colon, in the test with HOP-62 NSCLC and in the test with MCF7 breast was over 100 µM each time.

In the case of `CC(=O)O[C@H]1C(=O)[C@@]2(C)[C@H]([C@H](OC(=O)c3ccc(F)cc3)[C@]3(O)C[C@H](OC(=O)[C@H](O)[C@@H](NC(=O)c4ccccc4)c4ccccc4)C(C)=C1C3(C)C)[C@]1(OC(C)=O)CO[C@@H]1C[C@@H]2O`, the TGI with 786-0 renal was over 25 µM; in the test on HCT-15 colon it was over 25 µM; in the test with BT-549 breast, over 25 µM; in the test on UO-31 renal, over 25 µM; in the test on HT29 colon it was 3.85 µM; in the test with SF-539 CNS, 0.0604 µM. For the same compound, the TGI in the test on COLO 205 colon, with HOP-62 NSCLC and in the test on MCF7 breast was over 25 µM in each case.

For `CCOC(=O)c1nc2ccc(C(F)(F)F)cc2nc1Oc1ccc(C#N)cc1`, the TGI was 35.6 µM in the test on 786-0 renal; over 100 µM in the test on HCT-15 colon; 36.8 µM with BT-549 breast; over 100 µM in the test on UO-31 renal; 77.9 µM in the test on HT29 colon; 36.7 µM in the test on SF-539 CNS. Moreover, the TGI amounted to 88.5 µM with COLO 205 colon, 28.9 µM in the test with HOP-62 NSCLC and 37.7 µM with MCF7 breast.

For `COc1cc(-c2cc(=O)c3cc4c(=O)cc(-c5cc(OC)c(OC)c(OC)c5)oc4cc3o2)cc(OC)c1OC`, the TGI with 786-0 renal was 39 µM; in the test on HCT-15 colon, over 100 µM; in the test with BT-549 breast, 86.2 µM; in the test with UO-31 renal, over 100 µM; with HT29 colon it was over 100 µM; in the test on SF-539 CNS it was over 100 µM. Also, the TGI in the test on COLO 205 colon was over 100 µM; in the test with HOP-62 NSCLC it was 26.4 µM; in the test on MCF7 breast, over 100 µM.

For the compound `O=C(Oc1cc(=O)c(OC(=O)c2ccccc2)co1)c1ccccc1`, the TGI in the test with 786-0 renal, in the test with HCT-15 colon, with BT-549 breast, in the test on UO-31 renal, with HT29 colon and in the test with SF-539 CNS was over 100 µM each time. Moreover, the TGI in the test on COLO 205 colon, in the test on HOP-62 NSCLC and with MCF7 breast was over 100 µM throughout.

In the case of `S=c1[nH]c2ccc(Br)cc2c(=S)s1`, the TGI is over 100 µM in the test on 786-0 renal; over 100 µM in the test with HCT-15 colon; over 100 µM in the test on BT-549 breast; 53.5 µM in the test with UO-31 renal; over 100 µM in the test on HT29 colon; over 100 µM in the test on SF-539 CNS. Further, the TGI with COLO 205 colon is 32.2 µM; in the test with HOP-62 NSCLC, over 100 µM; with MCF7 breast, 40.8 µM.

As for `O=c1[nH]cnc2c1ncn2[C@@H]1C[C@@H]1CO`, the TGI with 786-0 renal, with HCT-15 colon, in the test with BT-549 breast, with UO-31 renal, in the test with HT29 colon and with SF-539 CNS was over 100 µM throughout. Also, the TGI in the test with COLO 205 colon, with HOP-62 NSCLC and in the test on MCF7 breast was over 100 µM in each case.

On to `Nc1nc(Cl)cc(NCC2(CO)CCC(CCc3ccccc3)C2)n1` (stereo not given), for which the TGI amounted to 31.9 µM in the test on 786-0 renal; 34 µM with HCT-15 colon; 30.3 µM with BT-549 breast; 33.3 µM in the test with UO-31 renal; 21.4 µM in the test on HT29 colon; 33.4 µM in the test with SF-539 CNS. Besides, the values for the TGI with COLO 205 colon, with HOP-62 NSCLC and with MCF7 breast were 27.3 µM, 23.1 µM and 32.7 µM, respectively.

Consider `CCc1c[n+]([O-])c(C)cc1[N+](=O)[O-]`, for which the TGI was over 100 µM with 786-0 renal; 40.1 µM with HCT-15 colon; over 100 µM with BT-549 breast; over 100 µM in the test on UO-31 renal; over 100 µM in the test with HT29 colon; over 100 µM with SF-539 CNS. For the same compound, the TGI in the test with COLO 205 colon was 29.6 µM; in the test on HOP-62 NSCLC, over 100 µM; in the test on MCF7 breast it was over 100 µM.

Consider `CC1NC(=O)[C@H](C)N(C)C(=O)[C@@H]2CCCN2C(=O)[C@@H](NC(=O)C(Cc2ccccc2)NC(=O)/C=C/C=C/C=C/C=C/C=C/C(=O)NC2=C(O)CCC2=O)COC(=O)[C@@H]2CCCN2C1=O` (stereo not given in full) (X26-[ξF]SP[NMeA][ξA]P; ester 2-C), for which the TGI in the test on 786-0 renal, in the test with HCT-15 colon, in the test on BT-549 breast, in the test on UO-31 renal, with HT29 colon and in the test on SF-539 CNS was over 100 µM each time. The TGI in the test with COLO 205 colon, with HOP-62 NSCLC and in the test on MCF7 breast was over 100 µM in each case.

For the origin of these results see PubChem BioAssay (NCI).
